Measured values from patent US5766927A, “Inhibition of protein degradation in living cells with dipeptides” (Massachusetts Institute of Technology, priority 1994, dated 1998).
“Also recorded” adds a separate entry of the source. Read-outs that look alike come from different tables or passages of the source. Residues, ends and D or L forms follow the SMILES beside them.

How the values were obtained:
[1] = test system: yeast (S.cerevisiae) cells; assay: Effect on yeast cell growth (optical density at 600 nm)
Description: (§1) Saccharomyces cerevisiaecells of the strain BWGl-7a (MATa his4 ade1 ura3 leu2) were transformed with plasmids using conventional techniques (F. Sherman et al. Methods in Yeast Genetics Cold Spring Harbor Laboratory, N.Y., 1981). The transformed cells were grown at 30° C. in a medium of 2% galactose, 0.67% Yeast Nitrogen Base without amino acids (Difco), adenine (10 μg/mL), histidine (20 μg/mL) and leucine (60 ug/mL).
The effect of 10 mM of leucine methyl ester (Leu methyl ester) on growth of exponentially growing yeast cells harboring a plasmid expressing either arginine-βgal (Arg-βgal, .largecircle., .circle-solid.) or leucine-βgal (Leu-βgal, .quadrature.,.box-solid.), supplemented with nothing (.largecircle.,.box-solid.) or with Leu methyl ester to a 10 mM final concentration (.box-solid.,.circle-solid.), was assessed. Results are represented in FIG. 1. Growth under each of these conditions was monitored by optical density at 600 nm.

[2] = test system: Arg-βgal; assay: Steady state β-galactosidase activity, cells expressing Arg-βgal; settings: for in vivo metabolic stabilization of Arg-βgal (βgal activity relative to untreated control): 2 hours incubation with dipeptide
Description: as §1

[3] = test system: Tyr-βgal; assay: Pulse-chase experiment in vivo and half-life determination, Tyr-βgal; format: cell-based, Saccharomyces cerevisiae; settings: for in vivo half-life (metabolic stabilization) of Tyr-βgal: 4 hour incubation
Description: (§2) Transformed cells were grown as described above, except that methionine (20 ug/mL) was included, to an optical density of about 0.5 at 600 nm. Amino acid derivatives were added and incubation continued for 4 to 5 hours until the optical density was approximately 1.0. Cells from a 10 mL culture were harvested by filtration through the well of a microtiter filtration plate. Subsequently, the cells were washed several times on the filter in the growth medium lacking methionine, and resuspended in 0.4 mL of 1% galactose, 50 mM potassium phosphate buffer (pH 7.4). (^35 S)methionine (100 uCi) was then added for a specified pulse time. The cells were collected by filtration and resuspended in 0.4 mL of the growth medium containing cycloheximide (0.2 mg/mL) and trichodermin (50 ug/mL). Samples (0.1 mL) were withdrawn at indicated times, and added to 0.8 mL of cold Buffer A (50 mM Na-HEPES pH 7.5, 0.15M NaCl, 5 mM EDTA, 1% TRiton X-100) containing leupeptin, pepstatin A, antipain, aprotinin and chymostatin (Sigma), (each at 20 ug/mL) in addition to 0.4 mL of glass beads. The cells were disrupted by vortexing three times for one minute at 4° C. The extracts were centrifuged at 12,000 g for 10 minutes and the radioactivity of acid-insoluble ^35 S in the supernatants was determined. Aliquots of the supernatants containing equal amounts of total acid-insoluble ^35 S were processed for immunoprecipitation with a monoclonal antibody to βgal. Ascitic fluid containing a molar excess of the antibody (at least ten-fold) was added to each aliquot, with subsequent incubation on ice for 1 to 2 hours. Protein A-Sepharose (Pharmacia) was then added and the suspension was incubated with rocking at 4° C. for 30 minutes and centrifuged at 12,000 g for thirty seconds. The protein A-Sepharose pellets were washed three times in Buffer A containing 0.1% SDS, resuspended in an SDS, dithiothreitol (DTT)-containing electrophoretic sample buffer, heated at 100° C. for 3 minutes, and centrifuged at 12,000 g for 20 seconds. (Laemmli, Nature 227, 680 (1970)). The supernatants were subjected to electrophoresis in a 6% discontinuous polyacrylamide-SDS gel (150 by 150 by 1.5 mm), with subsequent fluorography.
(§3) After fluorography of the pulse-chase gels, the amount of radioactivity in each band was detected by scintillation counting of the respective gel slices. Half-lives were calculated from these values (appropriately adjusted using the value from a blank gel slice) assuming a first-order kinetics of protein breakdown.
A pulse-chase experiment (3 minute pulse) was carried out with cells expressing Tyr-βgal in the absence (A) or presence (B) of a 4 hour incubation with 10 mM Leu methyl ester. Timepoints: 0 min (lane 1); 10 min (lane 2); 30 min (lane 3); and 60 min (lane 4). See legend to FIG. 6 for band designations.

[4] = test system: Val-βgal; assay: Steady state β-galactosidase activity, cells expressing Val-βgal (control); format: cell-based, Saccharomyces cerevisiae; settings: Leu-OMe 0 to 10 mM, 1 hour incubation
Description: (§4) Incubation was continued at 30° C.

[5] = test system: Leu-βgal; format: cell-based, Saccharomyces cerevisiae; settings: for half-life (metabolic stabilization) of Leu-βgal in the presence of Leu methyl ester: 10 mM, 3 hour incubation
Description: as §2, §3
A pulse-chase experiment (5 minute pulse) was carried out with cells expressing Val-βgal (A), or Leu-βgal in the presence (B) or absence (C) of a 3 hour incubation with 10 mM Leu methyl ester. Timepoints: 0 min (lane 1); 10 min (lane 2); and 30 min (lane 3). Bands are labelled: βgal (β-galactosidase); 90 kD (a cleavage product of βgal; note its absence from the lanes with metabolically stable Val-βgal lanes); X (an unrelated protein species crossreacting with the monoclonal antibody to βgal); and S (a βgal cleavage product apparently specific for metabolically stable X-βgal; species).
A pulse-chase experiment (5 minute pulse) was carried out with cells expressing Val-βgal (A), Leu-βgal (B), Leu-βgal plus 10 mM L-Ala-L-Trp (C), and Leu-βgal plus 10 mM L-Trp-L-Ala (D). Incubation with each dipeptide was carried out for 4 hours. Timepoints: 0 min (lane 1); 10 min (lane 2); and 30 min (lane 3). See legend to FIG. 6 for band designations.

[6] = test system: Leu-βgal; assay: Steady state β-galactosidase activity, cells expressing Leu-βgal; format: cell-based, Saccharomyces cerevisiae; settings: 10 mM
Description: as §4
Control cultures (.largecircle., .quadrature.) received no methyl ester.
Exponentially growing yeast cells harboring a plasmid expressing Leu- βal were supplemented with Leu methyl ester to the 10 mM final concentration (zero time) and assayed for βgal activity over a 7 hour time course (.box-solid.). A control culture (.quadrature.) received no methyl ester.

[7] = test system: X-βgal proteins with bulky hydrophobic amino termini (Phe-βgal, Leu-βgal, Trp-βgal, Tyr-βgal, Ile-βgal); assay: Steady state β-galactosidase activity, X-βgal proteins with bulky hydrophobic amino-terminal residues; format: cell-based, Saccharomyces cerevisiae; settings: 1 hour incubation
Description: as §4

[8] = dipeptides, over the time periods used (data not shown)
[9] = 10 mM Leu methyl ester vs minus OMe

C[C@H](N)C(=O)N[C@@H](CCCNC(=N)N)C(=O)O [L-Ala-L-Arg, L-alanine-L-arginine, reference compound] (H-Ala-Arg-OH)
effect on yeast cell growth [1, 8]: no adverse effect
in vivo metabolic stabilization of Arg-βgal (βgal activity relative to untreated control) [2]: no effect

C[C@H](NC(=O)[C@@H](N)Cc1c[nH]c2ccccc12)C(=O)O [L-Trp-L-Ala, L-tryptophan-L-alanine] (H-Trp-Ala-OH)
effect on yeast cell growth [1]: no adverse effect

C[C@H](NC(=O)[C@@H](N)CCCN=C(N)N)C(=O)O [L-Arg-L-Ala, L-arginine-L-alanine] (H-Arg-Ala-OH)
effect on yeast cell growth [1, 8]: no adverse effect

C[C@H](N)C(=O)N[C@@H](Cc1c[nH]c2ccccc12)C(=O)O [L-Ala-L-Trp, reference compound] (H-Ala-Trp-OH)
effect on yeast cell growth [1]: no adverse effect

COC(=O)[C@@H](N)CC(C)C [Leu methyl ester, leucine methyl ester]
amounts of the 90 kD cleavage product ([3]; 10 mM Leu methyl ester): decrease
increase in half-life of Tyr-βgal [3, 9]: 4.8 fold
zero-time increase in the amount of Tyr-βgal protein ([3]; 10 mM Leu methyl ester, 3 minute pulse): 3.3 fold
in vivo half-life (metabolic stabilization) of Tyr-βgal ([3]; 10 mM Leu methyl ester): metabolic stabilization
in vivo half-life (metabolic stabilization) of Tyr-βgal ([3]; 10 mM Leu methyl ester, listed as Leu-OMe): increased
effect on cell growth ([1]; 10 mM Leu methyl ester, exponentially growing cells expressing Arg-βgal or Leu-βgal): no adverse effects
effect on Val-βgal level [4]: No effect
90 kD βgal cleavage product ([5]; 10 mM Leu methyl ester): much diminished
increase in half-life of Leu-βgal [5, 9]: 3 fold
zero-time increase in the amount of Leu-βgal protein (βgal band, lane 1) ([5]; 10 mM Leu methyl ester, 5 minute pulse): 1.9 fold
half-life (metabolic stabilization) of Leu-βgal in the presence of Leu methyl ester [5]: metabolic stabilization
half-life (metabolic stabilization) of Leu-βgal in the presence of Leu methyl ester ([5]; listed as Leu-OMe): increased
half-life (metabolic stabilization) of Leu-βgal in the presence of Leu methyl ester ([5]; listed as leucine methyl ester): extended
amount of Arg-βgal ([2]; 10 mM Leu methyl ester, 3 hours incubation, varying initial OD600): does not increase
effect on Arg-βgal level ([2]; Leu-OMe 0 to 10 mM, 1 hour incubation): No effect
steady state activity (amount) of Leu-βgal ([6]; 3 hours incubation, varying initial OD600): specifically increases
increase in βgal level per hour (slope of line of best fit, compared with control levels) ([6]; 7 hour time course, Leu-βgal): 11 fold per hour
magnitude of the effect on Leu-βgal levels over time ([6]; first 7 hours): increases linearly with time
concentration at which the effect reaches saturation [7]: 5 to 10 mM
levels of all 5 X-βgal proteins with bulky hydrophobic amino termini ([7]; Leu-OMe 0 to 10 mM): increased

C[C@@H](NC(=O)[C@@H](N)CCCNC(=N)N)C(=O)O [L-Arg-D-Ala] (HELM PEPTIDE1{R.[dA]}$$$$V2.0)
in vivo metabolic stabilization of Arg-βgal (βgal activity relative to untreated control) [2]: stronger metabolic stabilization; also recorded: much better in vivo metabolic stabilizer
